Assay results reported in publication PMC12801676, “Guanidino compounds with native GABA(A) δ receptor selectivity: a tale of homeostatic compensation in δ-KO mice” (BMC Neuroscience, 2025).
Several values for one entry are separate records, joined by “and”; a condition that tells them apart may be missing. Equal values may be shown once. Read-outs that look alike come from different tables or passages of the source.

How the values were obtained:
[1] = system: native GABARs in δ-KO cerebellar granule cells (CGCs); assay: Whole-cell patch clamp of δ-KO cerebellar granule cells in brain slices, cumulative concentration-response; type: cell-based, mouse; settings: mean ± SEM; for δ-KO Imax: maximal evoked current at saturating agonist concentration; for EC50: steady-state currents at -70 mV, Hill fit
[2] = system: native GABARs in WT cerebellar granule cells (CGCs); assay: Whole-cell patch clamp of WT cerebellar granule cells in brain slices, cumulative concentration-response; settings: for WT Imax / WT slope (Hill slope) / EC50: WT CGCs, mean ± SEM; for WT Imax: maximal evoked current at saturating agonist concentration; for EC50: read-out: WT EC50, steady-state currents at -70 mV, Hill fit; for CGC GABAR activity: concentrations up to 1 mM
[3] = target: GABARs in δ-KO mouse forebrain membranes; assay: [3H]muscimol displacement, δ-KO forebrain membranes; type: binding; settings: for IC50: δ-KO forebrain membranes, room temperature, mean ± SD
Procedure: (§1) Brain (sans cerebellum) membranes from WT and δ-KO mice were prepared as described and stored frozen at -70 °C. After thawing, membranes were washed once in assay buffer (50 mM Tris-HCl, pH 7.4) and incubated for 40 min with 5 nM [^3H]muscimol in assay buffer in a total volume of 300 µl at room temperature. […] Three milliliters of Optiphase HiSafe 3 scintillation fluid (Wallac, Turku, Finland) were added to air-dried filters and GABAR bound [^3H]muscimol radioactivity determined in a Hidex 600 SL liquid scintillation counter (Hidex, Turku, Finland).

creatine transporter = system: creatine transporter; set-up: method as in PMID 35837012; settings: recombinant (HEK) cell expression; ref [20]; cited from earlier work
[4] = target: GABARs in WT mouse forebrain membranes; assay: [3H]muscimol displacement, WT forebrain membranes; type: binding; settings: for IC50: 5 nM [3H]muscimol; for [3H]muscimol (5 nM) displacement: concentrations up to 0.3 mM, mouse forebrain
Procedure: as §1

taurine transporter = system: taurine transporter; set-up: method as in PMID 512911; settings: ref [24]; read-out: Km as taurine transporter substrate; cited from earlier work
α4β3δ receptors = target: α4β3δ receptors; set-up: method as in PMID 30565258; settings: ref [36], read-out: functional muscimol EC50; cited from earlier work
[5] = system: recombinantly expressed γ2-GABARs; set-up: method as in PMID 9396785; settings: ref [48], read-out: functional (EC50) muscimol responses; cited from earlier work
[6] = WT forebrain membranes, room temperature, mean ± SD, read-out: IC50 for [3H]muscimol displacement, WT

**Q.** What does the source list for `NCCCC(=O)O` [GABA, γ-aminobutyrate]?
**A.** δ-KO Imax [1]: -65 ± 18 pA; δ-KO slope (Hill slope) [1]: 1.1 ± 0.1; WT Imax [2]: -66 ± 5 pA; WT slope (Hill slope) [2]: 1.5 ± 0.3

**Q.** Which results are given for `[H]/N=C(\N)NCCC(=O)O` [β-GPA, β-guanidinopropionate]?
**A.** δ-KO Imax [1]: -74 ± 19 pA; δ-KO slope (Hill slope) [1]: 1.3 ± 0.2; EC50 [1]: 8 µM and 8.2 µM; IC50 ([3]; 5 nM [3H]muscimol): 3.6 ± 0.6 µM; EC50 (creatine transporter): ~13 µM; IC50 [4, 6]: 3.8 µM and ~4 µM; WT Imax [2]: -45 ± 9 pA; WT slope (Hill slope) [2]: 0.85 ± 0.1; EC50 [2]: 3.2 ± 0.6 µM

**Q.** Which “[3H]muscimol (5 nM) displacement” value [4] does the source give for `N=C(N)NCCCC(=O)C(=O)O` [α-K-δ-GVA, α-Keto-δ-guanidinovalerate] here?
**A.** absence of [^3H]muscimol (5 nM) displacement

**Q.** What about the “CGC GABAR activity” value [2] of the same compound?
**A.** absence of detectable CGC GABAR activity

**Q.** Which EC50 (creatine transporter) does the source give for `CN(CC(=O)O)C(=N)N` [creatine] here?
**A.** ~35 µM

**Q.** What about the “[3H]muscimol (5 nM) displacement” value [4] of the same compound?
**A.** absence of [^3H]muscimol (5 nM) displacement

**Q.** What about the “CGC GABAR activity” value [2] of the same compound?
**A.** absence of detectable CGC GABAR activity

**Q.** Which “reduction of [3H]muscimol binding in δ-KO forebrain compared with WT” value ([3]; 5 nM [3H]muscimol, forebrain) does the source give for `NCc1cc(=O)[nH]o1` [[^3H]muscimol, [Methylene-^3H]muscimol, reference compound] here?
**A.** ~ 50%

**Q.** What about the “5 nM [3H]muscimol binding, δ-KO” value ([3]; δ-KO forebrain, specific binding normalized to protein) of the same compound?
**A.** 140 ± 5 fmol/mg protein

**Q.** And the “5 nM [3H]muscimol binding, WT” value ([4]; WT forebrain, specific binding normalized to protein)?
**A.** 265 ± 7 fmol/mg protein

**Q.** Which results are given for `NC(N)=NCCS(=O)(=O)O` [GES, guanidinoethanesulfonate]?
**A.** δ-KO Imax [1]: -29 ± 6 pA; δ-KO slope (Hill slope) [1]: 0.83 ± 0.2; EC50 [1]: 72 ± 10 µM; Km (taurine transporter): ~150 µM; IC50 ([3]; 5 nM [3H]muscimol): 35 ± 4 µM; IC50 [4, 6]: 36 ± 7 µM; WT Imax [2]: -35 ± 7 pA; WT slope (Hill slope) [2]: 0.89 ± 0.3; EC50 [2]: ~32 µM and 32 µM

**Q.** For `N=C(N)NCCC[C@H](N)C(=O)O` [arginine], which “[3H]muscimol (5 nM) displacement” value [4] is on record?
**A.** absence of [^3H]muscimol (5 nM) displacement

**Q.** What about the “CGC GABAR activity” value [2] of the same compound?
**A.** absence of detectable CGC GABAR activity

**Q.** Which results are given for `NCc1cc(=O)[nH]o1` [muscimol]?
**A.** EC50 (α4β3δ receptors): ~0.001 µM; EC50 [5]: 1 to 10 µM

**Q.** With `[H]/N=C(/N)NCC(=O)O` [GAA, guanidinoacetate] as the compound, how does the “δ-KO Imax” value [1] read?
**A.** -50 ± 10 pA

**Q.** And the “δ-KO slope (Hill slope)” value [1]?
**A.** 0.94 ± 0.1

**Q.** What about the EC50 [1] of the same compound?
**A.** 14 ± 2 µM

**Q.** What about the IC50 ([3]; 5 nM [3H]muscimol) of the same compound?
**A.** 2.5 ± 0.3 µM

**Q.** And the IC50 [4, 6]?
**A.** 3.1 ± 0.7 µM

**Q.** And the “WT Imax” value [2]?
**A.** -60 ± 18 pA

**Q.** What about the “WT slope (Hill slope)” value [2] of the same compound?
**A.** 1.1 ± 0.16

**Q.** And the EC50 [2]?
**A.** 4.4 ± 0.9 µM

**Q.** With `COc1ccc(-c2ccc(=N)n(CCCC(=O)O)n2)cc1` [gabazine, Gabazine, reference compound] as the compound, how does the “block of agonist-evoked CGC currents” value ([2]; currents evoked by GAA, β-GPA, γ-GBA, GES in WT and δ-KO CGCs) read?
**A.** completely blocked

**Q.** What does the source list for `N=C(N)NCCCC(=O)O` [γ-GBA, γ-guanidinobutyrate]?
**A.** δ-KO Imax [1]: -32 ± 7 pA; δ-KO slope (Hill slope) [1]: 0.95 ± 0.1; EC50 [1]: 219 ± 11 µM; IC50 ([3]; 5 nM [3H]muscimol): 26 ± 5 µM; IC50 [4, 6]: 8.5 ± 0.9 µM; IC50 ([4]; δ-KO values subtracted from WT values, read-out: δ-specific (WT minus δKO) displacement IC50): 3.5 ± 1.2 µM; WT Imax [2]: -75 ± 12 pA; WT slope (Hill slope) [2]: 0.81 ± 0.1; EC50 [2]: ~44 µM and 44 µM
